Assay results published in ChEMBL document CHEMBL5532661, “Discovery of a Novel Glucagon-like Peptide-1 (GLP-1) Analogue from Bullfrog and Investigation of Its Potential for Designing GLP-1-Based Multiagonists” (J Med Chem, 2024).
pEC50: −log10 of the molar value. The source made the active and inactive calls. No cut-off for these calls is given here. Numbered stars: 1 amine (or outer) side, 2 acyl side, 3 side chain; on linkers, the order of the positions; unused ones are H or OH. Square brackets hold non-standard residues; d marks the D form. Side chains are listed from the residue outwards. Peptide text beside a SMILES is read from it. * marks the point of attachment. C20 diacid = O=C(O)CCCCCCCCCCCCCCCCCCC(=O)*; C18 diacid = O=C(O)CCCCCCCCCCCCCCCCC(=O)*; γGlu = O=C(O)[C@H](CCC(=O)[*:2])N[*:1]; AEEA = NCCOCCOCC(=O)O; Aib = CC(C)(N)C(=O)O

Key:
[1] = biological target: T1, Gastric inhibitory polypeptide receptor (Homo sapiens, UniProt P48546); experiment: Agonist activity at human GIPR receptor expressed in HEK293 cells assessed as cAMP level measured after 60 mins by HTRF based assay; type: functional, cell-based
T1 sequence (P48546 whole entry): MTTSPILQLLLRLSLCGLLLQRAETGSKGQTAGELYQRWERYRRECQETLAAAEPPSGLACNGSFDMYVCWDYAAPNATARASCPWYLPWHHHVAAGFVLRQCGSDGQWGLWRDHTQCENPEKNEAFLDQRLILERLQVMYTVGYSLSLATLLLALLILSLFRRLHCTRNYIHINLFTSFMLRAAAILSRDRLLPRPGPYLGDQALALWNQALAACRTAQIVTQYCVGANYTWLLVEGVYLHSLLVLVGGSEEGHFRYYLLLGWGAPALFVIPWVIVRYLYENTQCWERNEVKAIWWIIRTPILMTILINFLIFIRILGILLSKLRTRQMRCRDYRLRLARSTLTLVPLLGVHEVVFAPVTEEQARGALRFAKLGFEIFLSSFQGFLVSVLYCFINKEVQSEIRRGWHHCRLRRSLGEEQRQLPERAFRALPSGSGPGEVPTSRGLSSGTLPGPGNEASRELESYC

[2] = biological target: T2, Gastric inhibitory polypeptide receptor (Homo sapiens) (UniProt P48546); experiment: Agonist activity at human GIPR receptor expressed in HEK293 cells assessed as cAMP level by measuring relative percent (GIP EC50/compound EC50) measured after 60 mins by HTRF based assay relative to GIP; type: functional, cell-based
T2 sequence (whole entry): T1 sequence (P48546 whole entry)

[3] = biological target: T3, Glucagon-like peptide 1 receptor (Homo sapiens, UniProt P43220); experiment: Agonist activity at human GLP-1 receptor expressed in HEK293 cells assessed as cAMP level by measuring relative percent (GLP-1 EC50/compound EC50) measured after 60 mins by HTRF based assay relative to GLP-1; type: functional, cell-based; settings: filed as agonist
T3 sequence (P43220 whole entry): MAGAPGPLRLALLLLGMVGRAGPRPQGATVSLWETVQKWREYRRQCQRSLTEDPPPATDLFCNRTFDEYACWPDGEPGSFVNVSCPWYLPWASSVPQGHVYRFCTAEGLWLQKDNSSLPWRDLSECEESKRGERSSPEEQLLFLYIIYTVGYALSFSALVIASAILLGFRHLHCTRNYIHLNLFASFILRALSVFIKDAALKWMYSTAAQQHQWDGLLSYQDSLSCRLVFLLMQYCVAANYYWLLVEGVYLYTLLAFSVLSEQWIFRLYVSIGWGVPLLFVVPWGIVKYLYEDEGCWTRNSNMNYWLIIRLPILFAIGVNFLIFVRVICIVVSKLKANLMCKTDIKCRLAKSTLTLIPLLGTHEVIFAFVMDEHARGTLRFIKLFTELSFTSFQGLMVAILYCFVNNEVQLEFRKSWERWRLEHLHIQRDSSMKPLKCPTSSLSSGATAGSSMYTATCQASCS

[4] = biological target: T4, Glucagon receptor (Homo sapiens, UniProt P47871); experiment: Agonist activity at human GCGR expressed in HEK293 cells assessed as cAMP level by measuring relative percent (glucagon EC50/compound EC50) measured after 60 mins by HTRF based assay relative to glucagon; type: functional, cell-based
T4 sequence (P47871 whole entry): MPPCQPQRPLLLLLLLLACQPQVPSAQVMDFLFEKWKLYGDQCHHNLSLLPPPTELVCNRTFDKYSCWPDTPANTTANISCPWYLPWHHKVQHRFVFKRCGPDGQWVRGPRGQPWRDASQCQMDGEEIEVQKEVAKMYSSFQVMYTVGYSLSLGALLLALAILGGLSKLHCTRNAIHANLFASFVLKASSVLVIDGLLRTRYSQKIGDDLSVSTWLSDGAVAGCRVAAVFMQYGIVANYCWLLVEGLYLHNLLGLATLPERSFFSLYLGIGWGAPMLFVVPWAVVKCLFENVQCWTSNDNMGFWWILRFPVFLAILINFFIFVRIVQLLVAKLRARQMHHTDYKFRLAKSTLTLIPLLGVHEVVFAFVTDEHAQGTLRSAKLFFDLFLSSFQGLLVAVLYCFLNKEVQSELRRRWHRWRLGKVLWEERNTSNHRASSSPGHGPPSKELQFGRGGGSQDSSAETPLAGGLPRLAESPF

[5] = biological target: T4, Glucagon receptor; experiment: Agonist activity at human GCGR expressed in HEK293 cells assessed as cAMP level measured after 60 mins by HTRF based assay; type: functional, cell-based
[6] = biological target: T3, Glucagon-like peptide 1 receptor; experiment: Agonist activity at human GLP-1 receptor expressed in HEK293 cells assessed as cAMP level measured after 60 mins by HTRF based assay; type: functional, cell-based
[7] = system: Mus musculus; experiment: Reduction in serum ALT in DIO mouse at 30 nmol/kg, sc treated every 2 and half day once measured after 21 days; type: functional, organism-based; settings: time 21.0 day
[8] = system: Mus musculus; experiment: Hypoglycemic effect in ICR mouse treated with 3 g/kg glucose assessed as reduction in blood glucose level at 100 nmol/kg, sc measured upto 120 mins by acute glucose lowering test; type: functional, organism-based
[9] = system: Mus musculus; experiment: Anorexigenic effect in ICR mouse assessed as decrease in food intake at 30 nmol/kg, sc measured upto 72 hrs by acute food intake study; type: functional, organism-based
[10] = system: Mus musculus; experiment: Antihyperglycemic effect in DIO mouse assessed as antihyperglycemic duration by measuring blood glucose at 30 nmol/kg, sc administered twice daily measured by hypoglycemic duration assay; type: functional, organism-based
[11] = system: Mus musculus; experiment: Reduction in serum AST in DIO mouse at 30 nmol/kg, sc treated every 2 and half day once measured after 21 days; type: functional, organism-based; settings: time 21.0 day
[12] = system: Mus musculus; experiment: Hypoglycemic effect in ICR mouse treated with 3 g/kg glucose assessed as reduction in blood glucose level at 30 nmol/kg, sc measured upto 120 mins pretreated with GLP-1R antagonist by OGTT; type: functional, organism-based
[13] = system: Mus musculus; experiment: Reduction in body weight in DIO mouse at 30 nmol/kg, sc treated every 2 and half day once measured after 21 days; type: functional; design: scale not given: the % may be the effect or the level left; settings: time 21.0 day

With CC[C@H](C)[C@H](NC(=O)[C@H](CCCCNC(=O)COCCOCCNC(=O)COCCOCCNC(=O)CC[C@H](NC(=O)CCCCCCCCCCCCCCCCC(=O)O)C(=O)O)NC(=O)[C@H](CCC(=O)O)NC(=O)[C@H](CC(C)C)NC(=O)[C@H](C)NC(=O)[C@H](CCCNC(=N)N)NC(=O)[C@H](CO)NC(=O)[C@H](CC(C)C)NC(=O)[C@H](CC(=O)O)NC(=O)[C@H](CO)NC(=O)[C@@H](NC(=O)[C@H](Cc1ccccc1)NC(=O)[C@@H](NC(=O)CNC(=O)[C@H](CCC(N)=O)NC(=O)C(C)(C)NC(=O)[C@@H](N)Cc1c[nH]cn1)[C@@H](C)O)[C@@H](C)O)C(=O)N[C@@H](C)C(=O)N[C@@H](C)C(=O)N[C@@H](CCCNC(=N)N)C(=O)N[C@@H](CC(C)C)C(=O)N[C@@H](Cc1ccccc1)C(=O)N[C@H](C(=O)N[C@@H](CCC(=O)O)C(=O)N[C@@H](Cc1c[nH]c2ccccc12)C(=O)N[C@@H](CC(C)C)C(=O)N[C@H](C(=O)N[C@@H](CCC(=O)O)C(=O)NCC(=O)NCC(=O)N1CCC[C@H]1C(=O)N[C@@H](CO)C(=O)N[C@@H](CO)C(=O)NCC(=O)N[C@@H](C)C(=O)N1CCC[C@H]1C(=O)N1CCC[C@H]1C(=O)N1CCC[C@H]1C(=O)N[C@@H](CO)C(N)=O)[C@@H](C)CC)[C@@H](C)CC (H-H[Aib]QGTFTSDLSRALEK([AEEA-AEEA-γGlu-C18 diacid])IAARLFIEWLIEGGPSSGAPPPS-NH2) the pEC50 [1] was 9.01, the Activity [2] was 3% and the Activity [3] was 241%. It also gave an Activity [4] of 5%, a pEC50 [5] of 8.74 and a pEC50 [6] of 10.66.

CC[C@H](C)[C@H](NC(=O)[C@H](CCCCNC(=O)COCCOCCNC(=O)COCCOCCNC(=O)CC[C@H](NC(=O)CCCCCCCCCCCCCCCCC(=O)O)C(=O)O)NC(=O)[C@H](CCC(=O)O)NC(=O)[C@H](CCSC)NC(=O)[C@H](C)NC(=O)[C@H](CCCNC(=N)N)NC(=O)[C@H](CO)NC(=O)[C@H](CC(C)C)NC(=O)[C@H](CC(=O)O)NC(=O)[C@H](CO)NC(=O)[C@@H](NC(=O)[C@H](Cc1ccccc1)NC(=O)[C@@H](NC(=O)CNC(=O)[C@H](CCC(N)=O)NC(=O)C(C)(C)NC(=O)[C@@H](N)Cc1c[nH]cn1)[C@@H](C)O)[C@@H](C)O)C(=O)N[C@@H](C)C(=O)N[C@H](C(=O)N[C@@H](CCCNC(=N)N)C(=O)N[C@@H](CC(C)C)C(=O)N[C@@H](Cc1ccccc1)C(=O)N[C@H](C(=O)N[C@@H](CCC(=O)O)C(=O)N[C@@H](Cc1c[nH]c2ccccc12)C(=O)N[C@@H](CC(C)C)C(=O)N[C@H](C(=O)N[C@@H](CCC(=O)O)C(=O)NCC(=O)NCC(=O)N1CCC[C@H]1C(=O)N[C@@H](CO)C(=O)N[C@@H](CO)C(=O)NCC(=O)N[C@@H](C)C(=O)N1CCC[C@H]1C(=O)N1CCC[C@H]1C(=O)N1CCC[C@H]1C(=O)N[C@@H](CO)C(N)=O)[C@@H](C)CC)[C@@H](C)CC)C(C)C (H-H[Aib]QGTFTSDLSRAMEK([AEEA-AEEA-γGlu-C18 diacid])IAVRLFIEWLIEGGPSSGAPPPS-NH2) was tested, and the pEC50 [1] was 9.00, the Activity [2] was 3% and the Activity [3] was 177%. The Activity [4] was 4%, the pEC50 [5] was 8.59 and the pEC50 [6] was 10.52.

CC[C@H](C)[C@H](NC(=O)[C@H](CCCCNC(=O)COCCOCCNC(=O)COCCOCCNC(=O)CC[C@H](NC(=O)CCCCCCCCCCCCCCCCCCC(=O)O)C(=O)O)NC(=O)[C@H](CCC(=O)O)NC(=O)[C@H](CC(C)C)NC(=O)[C@H](C)NC(=O)[C@H](CCCNC(=N)N)NC(=O)[C@H](CO)NC(=O)[C@H](CCSC)NC(=O)[C@H](CC(=O)O)NC(=O)[C@H](CO)NC(=O)[C@@H](NC(=O)[C@H](Cc1ccccc1)NC(=O)[C@@H](NC(=O)CNC(=O)[C@H](CCC(N)=O)NC(=O)C(C)(C)NC(=O)[C@@H](N)Cc1c[nH]cn1)[C@@H](C)O)[C@@H](C)O)C(=O)N[C@@H](C)C(=O)N[C@@H](C)C(=O)N[C@@H](CCCNC(=N)N)C(=O)N[C@@H](CC(C)C)C(=O)N[C@@H](Cc1ccccc1)C(=O)N[C@H](C(=O)N[C@@H](CC(=O)O)C(=O)N[C@@H](Cc1c[nH]c2ccccc12)C(=O)N[C@@H](CC(C)C)C(=O)N[C@H](C(=O)N[C@@H](CCC(=O)O)C(=O)NCC(=O)NCC(=O)N1CCC[C@H]1C(=O)N[C@@H](CO)C(=O)N[C@@H](CO)C(=O)NCC(=O)N[C@@H](C)C(=O)N1CCC[C@H]1C(=O)N1CCC[C@H]1C(=O)N1CCC[C@H]1C(=O)N[C@@H](CO)C(N)=O)[C@@H](C)CC)C(C)C (H-H[Aib]QGTFTSDMSRALEK([AEEA-AEEA-γGlu-C20 diacid])IAARLFVDWLIEGGPSSGAPPPS-NH2) was tested, and the pEC50 [1] was 9.02, the Activity [2] was 3% and the Activity [3] was 294%. It also gave an Activity [4] of 17%, a pEC50 [5] of 9.28 and a pEC50 [6] of 10.74.

In the case of CC[C@H](C)[C@H](NC(=O)[C@H](CCCCNC(=O)COCCOCCNC(=O)COCCOCCNC(=O)CC[C@H](NC(=O)CCCCCCCCCCCCCCCCC(=O)O)C(=O)O)NC(=O)[C@H](CCC(=O)O)NC(=O)[C@H](CCSC)NC(=O)[C@H](C)NC(=O)[C@H](CCCNC(=N)N)NC(=O)[C@H](CO)NC(=O)[C@H](CCSC)NC(=O)[C@H](CC(=O)O)NC(=O)[C@H](CO)NC(=O)[C@@H](NC(=O)[C@H](Cc1ccccc1)NC(=O)[C@@H](NC(=O)CNC(=O)[C@H](CCC(N)=O)NC(=O)C(C)(C)NC(=O)[C@@H](N)Cc1c[nH]cn1)[C@@H](C)O)[C@@H](C)O)C(=O)N[C@@H](C)C(=O)N[C@H](C(=O)N[C@@H](CCCNC(=N)N)C(=O)N[C@@H](CC(C)C)C(=O)N[C@@H](Cc1ccccc1)C(=O)N[C@H](C(=O)N[C@@H](CC(=O)O)C(=O)N[C@@H](Cc1c[nH]c2ccccc12)C(=O)N[C@@H](CC(C)C)C(=O)N[C@H](C(=O)N[C@@H](CCC(=O)O)C(=O)NCC(=O)NCC(=O)N1CCC[C@H]1C(=O)N[C@@H](CO)C(=O)N[C@@H](CO)C(=O)NCC(=O)N[C@@H](C)C(=O)N1CCC[C@H]1C(=O)N1CCC[C@H]1C(=O)N1CCC[C@H]1C(=O)N[C@@H](CO)C(N)=O)[C@@H](C)CC)C(C)C)C(C)C (H-H[Aib]QGTFTSDMSRAMEK([AEEA-AEEA-γGlu-C18 diacid])IAVRLFVDWLIEGGPSSGAPPPS-NH2), the pEC50 [1] was 9.08, the Activity [2] was 3% and the Activity [3] was 279%. The Activity [4] was 15%, the pEC50 [5] was 9.21 and the pEC50 [6] was 10.72.

In the case of CC[C@H](C)[C@H](NC(=O)[C@H](CCCCNC(=O)COCCOCCNC(=O)COCCOCCNC(=O)CC[C@H](NC(=O)CCCCCCCCCCCCCCCCCCC(=O)O)C(=O)O)NC(=O)[C@H](CCC(=O)O)NC(=O)[C@H](CCSC)NC(=O)[C@H](C)NC(=O)[C@H](CCCNC(=N)N)NC(=O)[C@H](CO)NC(=O)[C@H](CCSC)NC(=O)[C@H](CC(=O)O)NC(=O)[C@H](CO)NC(=O)[C@@H](NC(=O)[C@H](Cc1ccccc1)NC(=O)[C@@H](NC(=O)CNC(=O)[C@H](CCC(N)=O)NC(=O)C(C)(C)NC(=O)[C@@H](N)Cc1c[nH]cn1)[C@@H](C)O)[C@@H](C)O)C(=O)N[C@@H](C)C(=O)N[C@H](C(=O)N[C@@H](CCCNC(=N)N)C(=O)N[C@@H](CC(C)C)C(=O)N[C@@H](Cc1ccccc1)C(=O)N[C@H](C(=O)N[C@@H](CC(=O)O)C(=O)N[C@@H](Cc1c[nH]c2ccccc12)C(=O)N[C@@H](CC(C)C)C(=O)N[C@H](C(=O)N[C@@H](CCC(=O)O)C(=O)NCC(=O)NCC(=O)N1CCC[C@H]1C(=O)N[C@@H](CO)C(=O)N[C@@H](CO)C(=O)NCC(=O)N[C@@H](C)C(=O)N1CCC[C@H]1C(=O)N1CCC[C@H]1C(=O)N1CCC[C@H]1C(=O)N[C@@H](CO)C(N)=O)[C@@H](C)CC)C(C)C)C(C)C (H-H[Aib]QGTFTSDMSRAMEK([AEEA-AEEA-γGlu-C20 diacid])IAVRLFVDWLIEGGPSSGAPPPS-NH2), the pEC50 [1] was 9.05, the Activity [2] was 3% and the Activity [3] was 265%. It also gave an Activity [4] of 12%, a pEC50 [5] of 9.10 and a pEC50 [6] of 10.70.

SEMAGLUTIDE was tested, and the Activity [7] was “Active”, the Activity [8] was “Active” and the Activity [9] was “Active”. The Activity [10] was “Active”, the Activity [11] was “Active” and the Activity [12] was “inactive”. The Activity [13] was 18.6%.
